Laboratory results taken from PubChem BioAssay (NCI).
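Dose response: 5 concentrations. Exposure: 48 h. Format: 96-well plates. Endpoint: linear interpolation; highest concentration if not reached. At the GI50, growth is halved. The concentration for full growth arrest is given as TGI.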

Experiments:
Assay in all cases: NCI tumour cell line growth inhibition, 48 h
SW-620 colon = test system: SW-620 colon
DU-145 prostate = test system: DU-145 prostate
M14 melanoma = test system: M14 melanoma
SF-295 CNS = test system: SF-295 CNS
NCI-H23 lung = test system: NCI-H23 lung
HCT-15 colon = test system: HCT-15 colon
OVCAR-4 ovarian = test system: OVCAR-4 ovarian
SF-539 CNS = test system: SF-539 CNS

Compound	GI50 (SW-620 colon)	TGI (SW-620 colon)	GI50 (DU-145 prostate)	TGI (DU-145 prostate)	GI50 (M14 melanoma)	TGI (M14 melanoma)	GI50 (SF-295 CNS)	TGI (SF-295 CNS)	GI50 (NCI-H23 lung)	TGI (NCI-H23 lung)	GI50 (HCT-15 colon)	TGI (HCT-15 colon)	GI50 (OVCAR-4 ovarian)	TGI (OVCAR-4 ovarian)	GI50 (SF-539 CNS)	TGI (SF-539 CNS)
Cc1cc(S(=O)(=O)Nc2nc3ccsc3c(=O)n2Cc2ccco2)c(S)cc1Cl	> 100 µM	> 100 µM	> 100 µM	> 100 µM	> 100 µM	> 100 µM	62.8 µM	> 100 µM	> 100 µM	> 100 µM	> 100 µM	> 100 µM	> 100 µM	> 100 µM	> 100 µM	> 100 µM
O=C1c2ccccc2S(=O)(=O)N1CSC(=S)N1CCCC1	> 100 µM	> 100 µM	> 100 µM	> 100 µM	> 100 µM	> 100 µM	> 100 µM	> 100 µM	> 78.6 µM	> 100 µM	> 100 µM	> 100 µM	> 51.7 µM	> 100 µM	> 100 µM	> 100 µM
N#C/C(=C/C=C(\Cl)c1ccc(Cl)cc1)C(N)=O	2.1 µM	4.53 µM	3.31 µM	12.5 µM	1.94 µM	9.84 µM	1.65 µM	3.45 µM	2.4 µM	8.83 µM	2.79 µM	> 32.5 µM	4.91 µM	> 48.2 µM	3.19 µM	9.27 µM
Nc1ccc(C#Cc2cncnc2Nc2ccc(OCc3cccc(F)c3)c(Cl)c2)cc1	> 25 µM	> 25 µM	> 18 µM	> 25 µM	> 23.6 µM	> 25 µM	10.6 µM	> 25 µM	> 20.5 µM	> 25 µM	7.32 µM	> 25 µM	12.3 µM	> 25 µM	> 15.8 µM	> 25 µM
CCCCn1c2c(c3ccccc3c1=O)C(=O)c1ccccc1-2		> 100 µM		> 100 µM		> 100 µM		> 100 µM		> 100 µM		> 100 µM		38.4 µM		> 100 µM
Cc1ccc(-c2ccc(Nc3c4ccccc4nc4ccccc34)cc2)cn1		14.9 µM				11.2 µM		11.9 µM		88.7 µM		17.2 µM				21.1 µM
COc1ccc2nc(NCCCNCCO)c3sc4ccc(F)cc4c(=O)c3c2c1	1.53 µM	3.04 µM	1.6 µM	3.04 µM	1.85 µM	3.48 µM	1.73 µM	3.22 µM	1.73 µM	3.27 µM	1.28 µM	2.64 µM	1.76 µM	3.43 µM	1.71 µM	3.18 µM
N#Cc1c[nH]n2ccnc12		> 100 µM		> 100 µM		> 100 µM		> 100 µM		> 100 µM		> 100 µM		> 100 µM		
O=C1C(Cl)=C(Nc2ccc3cn[nH]c3c2)C(=O)c2ccccc21	1.36 µM	2.95 µM	1.17 µM	2.39 µM	1.59 µM	3.01 µM	1.67 µM	4.14 µM	0.413 µM	1.81 µM	1.01 µM	2.17 µM	1.31 µM	2.58 µM	1.81 µM	3.2 µM
O=C1C=CC(=O)C1(Br)Br		27.9 µM		39 µM		38.1 µM		34.1 µM		39.9 µM		17.3 µM		33.2 µM		30.4 µM
O=C1/C(=C/c2ccccc2)SC(=Nc2ccccc2)N1Nc1ccccc1	17.6 µM	> 100 µM	32.2 µM	> 100 µM	12.3 µM	42.8 µM	16.3 µM	> 100 µM	22.6 µM	> 100 µM	5.1 µM	> 100 µM	7.96 µM	> 100 µM	27.2 µM	99.5 µM
C=C1C(=O)O[C@H]2[C@H]1CC/C(COC(=O)C(=O)c1c[nH]c3ccc(OC)cc13)=C\CC[C@@]1(C)O[C@@H]21	4 µM	16.2 µM	7.99 µM	17 µM	5.18 µM	10.4 µM	12.4 µM	29.5 µM	7.01 µM	13.8 µM	3.77 µM	7.82 µM	6.93 µM	21.4 µM	6.15 µM	10.4 µM
COc1c2ccccc2c(O)c2c(=O)c(C(=O)O)cn(C)c12	> 100 µM	> 100 µM	> 100 µM	> 100 µM	> 100 µM	> 100 µM	28.8 µM	> 100 µM	> 100 µM	> 100 µM	> 100 µM	> 100 µM	> 100 µM	> 100 µM	35.9 µM	> 100 µM
COc1cc(NN=C(c2ccc(O)cc2)c2ccc(O)cc2)c([N+](=O)[O-])cc1[N+](=O)[O-]	15.2 µM	33.6 µM	12.8 µM	50.8 µM	11.4 µM	24.7 µM	1.73 µM	16.5 µM	13.5 µM	34.5 µM	5.75 µM	20.1 µM	12.2 µM	27 µM	13 µM	27.7 µM
CN(C)CCNC(=O)c1cccc2cc3ccccc3nc12	0.775 µM	3.17 µM	1.8 µM	4.37 µM	1.43 µM	3.29 µM	1.26 µM	4.62 µM	1.8 µM	5.13 µM	1.25 µM		2.11 µM	4.99 µM	1.78 µM	8.21 µM
Nc1ccn([C@H]2C[C@@H](O)[C@@H](CO)S2)c(=O)n1	> 70.1 µM	> 100 µM	> 100 µM	> 100 µM	> 100 µM	> 100 µM	> 100 µM	> 100 µM	> 100 µM	> 100 µM	11.8 µM	> 100 µM	> 100 µM	> 100 µM	> 100 µM	> 100 µM

Compound	GI50 (SW-620 colon)	TGI (SW-620 colon)	GI50 (DU-145 prostate)	TGI (DU-145 prostate)	GI50 (M14 melanoma)	TGI (M14 melanoma)	GI50 (SF-295 CNS)	TGI (SF-295 CNS)	GI50 (NCI-H23 lung)	TGI (NCI-H23 lung)	GI50 (HCT-15 colon)	TGI (HCT-15 colon)	GI50 (OVCAR-4 ovarian)	TGI (OVCAR-4 ovarian)	GI50 (SF-539 CNS)	TGI (SF-539 CNS)
CS(=O)(=O)N1CCN(Cc2cc3nc(-c4cccc5[nH]ncc45)nc(N4CCOCC4)c3s2)CC1 (tested in a mixture with another compound)	0.824 µM	> 100 µM	0.0837 µM		0.277 µM		0.062 µM	0.468 µM	0.26 µM		0.207 µM	> 100 µM	0.514 µM		0.0319 µM	0.108 µM
Cc1ccc(S(=O)(=O)Oc2ccc3c4c(c(=O)oc3c2)CCCCC4)cc1			> 100 µM	> 100 µM	> 100 µM	> 100 µM	> 100 µM	> 100 µM	8 µM	> 100 µM	3.66 µM	> 100 µM	7.11 µM	> 100 µM	6.77 µM	> 100 µM
N#C/C(=C\c1ccc(Br)cc1)n1nnc2cccc(F)c21	0.475 µM	1.94 µM	1.51 µM	2.85 µM			1.92 µM	3.88 µM	1.43 µM	3.07 µM	0.478 µM	1.89 µM	1.65 µM	3.49 µM	1.86 µM	3.45 µM
COc1cc2c3c(n(CCCN4CCN(C)CC4)c(=O)c2cc1OC)-c1cc2c(cc1C3=O)OCO2	11.2 µM	54.1 µM	10.6 µM	27.5 µM			10.7 µM	31.7 µM	11.9 µM	24.1 µM	16 µM	36.1 µM	4.17 µM	18.6 µM	17.7 µM	38.2 µM
Nc1c(C(=O)c2cccc(OCCN3CCOCC3)c2)cnn1-c1ccc(F)cc1	> 25 µM	> 25 µM	> 25 µM	> 25 µM	> 25 µM	> 25 µM	> 25 µM	> 25 µM	> 25 µM	> 25 µM	> 25 µM	> 25 µM	> 25 µM	> 25 µM	> 25 µM	> 25 µM
CC(CN)[C@@H]1CC[C@]2(CO)CC[C@]3(C)[C@H](CC[C@@H]4[C@@]5(C)CCC(NCCO)C(C)(C)[C@@H]5CC[C@]43C)[C@@H]12 (stereo not given in full)	1.71 µM	3.26 µM	2.34 µM	5.32 µM	1.92 µM	3.68 µM	1.74 µM	3.4 µM	2.29 µM	5.47 µM	1.98 µM	3.97 µM	2.7 µM	9.09 µM	1.61 µM	3.02 µM
Cc1ccc(N=C2CSc3nnc(-c4csc5c4CCCC5)n3N2)cc1	0.204 µM	> 50 µM	0.209 µM	> 50 µM			0.148 µM	14 µM	0.295 µM	> 50 µM	0.227 µM	> 50 µM	> 50 µM	> 50 µM	0.131 µM	0.473 µM
Nc1nc2c(c3ncccc13)C(c1cccc(Cl)c1)Cc1ncccc1-2 (stereo not given)	0.88 µM	30.8 µM	2.77 µM	24.9 µM	1.23 µM	12.7 µM	2.21 µM	11 µM	4.93 µM	59.4 µM	1.22 µM	20.6 µM	5.14 µM	40.5 µM	1.96 µM	7.25 µM
C(CCc1nnc2c(n1)CCCC2)Cc1nnc2c(n1)CCCC2		> 100 µM		> 100 µM		> 100 µM		> 100 µM		> 100 µM		> 100 µM		> 100 µM		> 100 µM
CC[N+](CC)=c1ccc2nc3c(cc(NCc4ccccc4)c4ccccc43)oc-2c1	0.302 µM	1.4 µM	0.155 µM	0.291 µM	0.273 µM	0.75 µM	0.2 µM	0.51 µM	0.148 µM	0.352 µM	0.378 µM	2.29 µM	0.176 µM	1.63 µM	4.19 µM	21.2 µM
CCOC(=O)/C=C1\SC(=Nc2ccc(C#N)cc2)N(CCN2C(=O)/C(=C/C(=O)OCC)SC2=Nc2ccc(C#N)cc2)C1=O	0.416 µM	2.63 µM	3.04 µM	13.6 µM	3.3 µM	18.2 µM	5.59 µM	25.6 µM	3.52 µM	18.1 µM	0.408 µM	2.53 µM	2.28 µM	29.9 µM	3.53 µM	12.8 µM
COc1ncc(-c2nc3c(n2C(C)C)[C@H](c2ccc(Cl)cc2)N(c2cc(Cl)cn(C)c2=O)C3=O)c(OC)n1	63.7 µM	> 100 µM	94.8 µM	> 100 µM	36.8 µM	> 100 µM	36.8 µM	> 100 µM	> 100 µM	> 100 µM	34.5 µM	> 100 µM	29.2 µM	> 100 µM	64.5 µM	> 100 µM
C=C(CN1CCN(c2cccc(C(F)(F)F)c2)CC1)c1ccc(C(=O)Nc2ccccc2N)cc1	1.28 µM	15.9 µM	1.36 µM	7.23 µM	1.05 µM	9.89 µM	0.537 µM	3.88 µM	3.72 µM	> 32.9 µM	0.48 µM	3.62 µM	3.94 µM	41 µM	0.543 µM	2.82 µM
N#CC1C(=N)Cc2ccccc2-c2ccccc21 (stereo not given)	4.22 µM	43.4 µM	6.92 µM	49.7 µM	2.74 µM	10.3 µM	2.21 µM	9.36 µM	11.2 µM	68.8 µM			18 µM	> 100 µM	3.92 µM	25.2 µM
COc1ccc(/C=C(/C(=O)N2CCCC2)c2cc(OC)c(OC)c(OC)c2)cc1N	2.48 µM	> 100 µM	2.65 µM	> 100 µM			1.11 µM	> 100 µM	4.61 µM	> 100 µM	2.28 µM	> 100 µM	28.2 µM	> 100 µM	1.9 µM	6.75 µM
COc1ccc(C2NCCc3c2[nH]c2ccccc32)cc1CN1CCN(c2ccc(F)cc2)CC1 (stereo not given)	1.74 µM	3.33 µM	2.76 µM	7.81 µM			1.75 µM	3.4 µM	4.77 µM	17 µM	1.61 µM	3.06 µM	2.28 µM	7.22 µM	1.88 µM	3.42 µM
